Experimental data taken from patent US4318989A, “Starch-degrading enzymes from Cladosporium resinae” (Lifeline Products, Inc., priority 1980, dated 1982).

Key:
[1] = system: Cladosporium resinae glucoamylase S; test: Kinetic constants of glucoamylases (release of glucose from substrate); assay type: biochemical, Cladosporium resinae (ATCC No. 20495); conditions: Table VI
[2] = system: Aspergillus niger glucoamylase II; test: as above; assay type: biochemical; conditions: Table VI
Experimental: In assaying the rate of release of glucose from starch, pullulan or maltose, enzyme solution (culture solution) (0.1 ml) undiluted or diluted up to 100-fold, was incubated with substrate solution (0.5 ml) for 5 to 20 minutes at 37° C. […]. This reaction was terminated and the color developed by adding 50% HCl solution (2 ml). Substrates employed were pullulan, maltose and J. T. Baker Starch (Lintner) Soluble all at 5 mg/ml concentration and in 0.1 M sodium acetate buffer pH 4.3. α-amylase was assayed by the method described in Marshall, J.J., et al, Clinica Chemica Acta, 76, 277 (1977).
The relative rates of hydrolysis of several glucooligosaccharides and polysaccharides are shown in Table V based upon data shown in FIG. 6-11. Results are compared to those obtained using Aspergillus niger glucoamylase II. […] Table VI provides the kinetic constants of the Cladosporium resinae glucoamylases and Asperigillus niger glucoamylase.

`OC[C@H]1O[C@H](O[C@H]2[C@H](O)[C@@H](O)C(O)O[C@@H]2CO)[C@H](O)[C@@H](O)[C@@H]1O` (mixture of isomers) [Maltose] was tested, and the VMAX [1] was 2.9 μmoles glucose released per mi and the VMAX [2] was 4.8 μmoles glucose released per mi.
